Measured values: US6825172B2, “3-descladinosyl-6-O-carbamoyl and 6-O-carbonoyl macrolide antibacterial agents” (Janssen Pharmaceutica, NV, priority 2002, dated 2004)
Converted amounts (≈) assume the structure as drawn. Where two headings read alike, the source gives them in different places.

Legend:
Test in all cases: MIC, microdilution broth method (NCCLS)
Format in all cases: cell-based
H. influenzae ATCC49247 = settings: Haemophilus influenzae, read-out: MIC Values, E: H. influenzae ATCC49247
Method in brief: (§1)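 NCCLS M7-A4 broth microdilution: two-fold drug dilutions in cation-adjusted Mueller-Hinton broth, inoculum approximately 5×10^4 CFU/well. Trays incubated at 35 °C for 16-20 hours. MIC read by comparing growth to compound-free growth controls.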

S. pneumoniae ATCC49619 = settings: Streptococcus pneumoniae, read-out: MIC Values, D: S. pneumoniae ATCC49619
Method in brief: as §1

E. coli OC2605 = settings: Escherichia coli
Method in brief: as §1

S. aureus ATCC29213 = settings: Staphylococcus aureus, read-out: MIC Values, B: S. aureus ATCC29213
Method in brief: as §1

E. faecalis ATCC29212 = settings: Enterococcus faecalis, read-out: MIC Values, C: E. faecalis ATCC29212
Method in brief: as §1

[1] = Table 1, 6-Carbamoyl-3-Acyl Macrolide Derivatives
[2] = Table 1, 6-Carbamoyl-3-Acyl Macrolide Derivatives, read-out: MIC Values, A: E. coli OC2605
[3] = Table 2, 3,6-Dicarbamoyl Macrolide Derivatives
[4] = Table 2, 3,6-Dicarbamoyl Macrolide Derivatives, read-out: MIC Values, A: E. coil OC2605

MIC (H. influenzae ATCC49247; [1])	MIC (S. pneumoniae ATCC49619; [1])	MIC (E. coli OC2605; [2])	MIC (S. aureus ATCC29213; [1])	MIC (E. faecalis ATCC29212; [1])	MIC (H. influenzae ATCC49247; [3])	MIC (S. pneumoniae ATCC49619; [3])	MIC (E. coli OC2605; [4])	MIC (S. aureus ATCC29213; [3])	MIC (E. faecalis ATCC29212; [3])	SMILES
4 mg/L (≈ 4.22 µM)	0.06 mg/L (≈ 0.0633 µM)	16 mg/L (≈ 16.9 µM)	1 mg/L (≈ 1.05 µM)	0.25 mg/L (≈ 0.264 µM)						CC[C@H]1OC(=O)[C@H](C)[C@@H](OC(=O)Cc2cccnc2)[C@H](C)[C@@H](O[C@@H]2O[C@H](C)C[C@H](N(C)C)[C@H]2O)[C@](C)(OC(=O)NC/C=C/c2ccc(C(F)(F)F)nc2)C[C@@H](C)C(=O)[C@H](C)[C@H]2NC(=O)O[C@@]21C [Compound 36]
4 mg/L (≈ 4.21 µM)	0.12 mg/L (≈ 0.126 µM)	> 16 mg/L	2 mg/L (≈ 2.11 µM)	0.5 mg/L (≈ 0.527 µM)						CC[C@H]1OC(=O)[C@H](C)[C@@H](OC(=O)Cc2cccnc2)[C@H](C)[C@@H](O[C@@H]2O[C@H](C)C[C@H](N(C)C)[C@H]2O)[C@](C)(OC(=O)NC/C=C/c2cnc(C(F)(F)F)nc2)C[C@@H](C)C(=O)[C@H](C)[C@H]2NC(=O)O[C@@]21C [Compound 38]
2 mg/L (≈ 2.17 µM)	0.06 mg/L (≈ 0.0651 µM)	16 mg/L (≈ 17.4 µM)	1 mg/L (≈ 1.09 µM)	0.5 mg/L (≈ 0.543 µM)						CC[C@H]1OC(=O)[C@H](C)[C@@H](OC(=O)Cc2cccnc2)[C@H](C)[C@@H](O[C@@H]2O[C@H](C)C[C@H](N(C)C)[C@H]2O)[C@](C)(OC(=O)NC/C=C/c2cnc(C3CC3)nc2)C[C@@H](C)C(=O)[C@H](C)[C@H]2NC(=O)O[C@@]21C [Compound 39]
2 mg/L (≈ 2.27 µM)	0.12 mg/L (≈ 0.136 µM)	> 16 mg/L	1 mg/L (≈ 1.14 µM)	0.5 mg/L (≈ 0.568 µM)						CC[C@H]1OC(=O)[C@H](C)[C@@H](OC(=O)Cc2cccnc2)[C@H](C)[C@@H](O[C@@H]2O[C@H](C)C[C@H](N(C)C)[C@H]2O)[C@](C)(OC(=O)NC/C=C/c2cncnc2)C[C@@H](C)C(=O)[C@H](C)[C@H]2NC(=O)O[C@@]21C [Compound 40]
4 mg/L (≈ 4.33 µM)	0.12 mg/L (≈ 0.13 µM)	> 16 mg/L	1 mg/L (≈ 1.08 µM)	0.5 mg/L (≈ 0.542 µM)						CC[C@H]1OC(=O)[C@H](C)[C@@H](OC(=O)Cc2cccnc2)[C@H](C)[C@@H](O[C@@H]2O[C@H](C)C[C@H](N(C)C)[C@H]2O)[C@](C)(OC(=O)NC/C=C/c2cnc(C(C)C)nc2)C[C@@H](C)C(=O)[C@H](C)[C@H]2NC(=O)O[C@@]21C [Compound 41]
8 mg/L (≈ 8 µM)	0.12 mg/L (≈ 0.12 µM)	16 mg/L (≈ 16 µM)	1 mg/L (≈ 1 µM)	1 mg/L (≈ 1 µM)						CC[C@H]1OC(=O)[C@H](C)[C@@H](OC(=O)/C(=N/OC)c2cccnc2)[C@H](C)[C@@H](O[C@@H]2O[C@H](C)C[C@H](N(C)C)[C@H]2O)[C@](C)(OC(=O)NC/C=C/c2ccc(-c3ncccn3)cc2)C[C@@H](C)C(=O)[C@H](C)[C@H]2NC(=O)O[C@@]21C [Compound 43]
					4 mg/L (≈ 4.05 µM)	0.12 mg/L (≈ 0.121 µM)	> 16 mg/L	1 mg/L (≈ 1.01 µM)	0.5 mg/L (≈ 0.506 µM)	CC[C@H]1OC(=O)[C@H](C)[C@@H](OC(=O)Nc2ccc(OC)nc2)[C@H](C)[C@@H](O[C@@H]2O[C@H](C)C[C@H](N(C)C)[C@H]2O)[C@](C)(OC(=O)NC/C=C/c2ccc(-c3ncccn3)cc2)C[C@@H](C)C(=O)[C@H](C)[C@H]2NC(=O)O[C@@]21C [Compound 50]
					2 mg/L (≈ 2.08 µM)	0.12 mg/L (≈ 0.125 µM)	> 16 mg/L	1 mg/L (≈ 1.04 µM)	0.5 mg/L (≈ 0.519 µM)	CC[C@H]1OC(=O)[C@H](C)[C@@H](OC(=O)NC2CCCCC2)[C@H](C)[C@@H](O[C@@H]2O[C@H](C)C[C@H](N(C)C)[C@H]2O)[C@](C)(OC(=O)NC/C=C/c2ccc(-c3ncccn3)cc2)C[C@@H](C)C(=O)[C@H](C)[C@H]2NC(=O)O[C@@]21C [Compound 51]
					4 mg/L (≈ 4.1 µM)	0.12 mg/L (≈ 0.123 µM)	> 16 mg/L	1 mg/L (≈ 1.03 µM)	1 mg/L (≈ 1.03 µM)	CC[C@H]1OC(=O)[C@H](C)[C@@H](OC(=O)Nc2ccc(F)cc2)[C@H](C)[C@@H](O[C@@H]2O[C@H](C)C[C@H](N(C)C)[C@H]2O)[C@](C)(OC(=O)NC/C=C/c2ccc(-c3ncccn3)cc2)C[C@@H](C)C(=O)[C@H](C)[C@H]2NC(=O)O[C@@]21C [Compound 52]
					> 16 mg/L	0.25 mg/L (≈ 0.248 µM)	> 16 mg/L	2 mg/L (≈ 1.99 µM)	1 mg/L (≈ 0.993 µM)	CC[C@H]1OC(=O)[C@H](C)[C@@H](OC(=O)Nc2ccc3ccccc3c2)[C@H](C)[C@@H](O[C@@H]2O[C@H](C)C[C@H](N(C)C)[C@H]2O)[C@](C)(OC(=O)NC/C=C/c2ccc(-c3ncccn3)cc2)C[C@@H](C)C(=O)[C@H](C)[C@H]2NC(=O)O[C@@]21C [Compound 53]
					16 mg/L (≈ 15.6 µM)	0.5 mg/L (≈ 0.487 µM)	> 16 mg/L	2 mg/L (≈ 1.95 µM)	2 mg/L (≈ 1.95 µM)	CC[C@H]1OC(=O)[C@H](C)[C@@H](OC(=O)Nc2ccc(Cl)c(Cl)c2)[C@H](C)[C@@H](O[C@@H]2O[C@H](C)C[C@H](N(C)C)[C@H]2O)[C@](C)(OC(=O)NC/C=C/c2ccc(-c3ncccn3)cc2)C[C@@H](C)C(=O)[C@H](C)[C@H]2NC(=O)O[C@@]21C [Compound 54]
					4 mg/L (≈ 4.4 µM)	0.03 mg/L (≈ 0.033 µM)	16 mg/L (≈ 17.6 µM)	0.5 mg/L (≈ 0.55 µM)	0.25 mg/L (≈ 0.275 µM)	CC[C@H]1OC(=O)[C@H](C)[C@@H](OC(=O)N(C)C)[C@H](C)[C@@H](O[C@@H]2O[C@H](C)C[C@H](N(C)C)[C@H]2O)[C@](C)(OC(=O)NC/C=C/c2ccc(-c3ncccn3)cc2)C[C@@H](C)C(=O)[C@H](C)[C@H]2NC(=O)O[C@@]21C [Compound 55]
					4 mg/L (≈ 4.27 µM)	0.06 mg/L (≈ 0.064 µM)	16 mg/L (≈ 17.1 µM)	0.5 mg/L (≈ 0.534 µM)	0.5 mg/L (≈ 0.534 µM)	CC[C@H]1OC(=O)[C@H](C)[C@@H](OC(=O)N(CC)CC)[C@H](C)[C@@H](O[C@@H]2O[C@H](C)C[C@H](N(C)C)[C@H]2O)[C@](C)(OC(=O)NC/C=C/c2ccc(-c3ncccn3)cc2)C[C@@H](C)C(=O)[C@H](C)[C@H]2NC(=O)O[C@@]21C [Compound 56]
					4 mg/L (≈ 4.27 µM)	0.06 mg/L (≈ 0.064 µM)	16 mg/L (≈ 17.1 µM)	0.5 mg/L (≈ 0.534 µM)	0.5 mg/L (≈ 0.534 µM)	CC[C@H]1OC(=O)[C@H](C)[C@@H](OC(=O)N(C)C(C)C)[C@H](C)[C@@H](O[C@@H]2O[C@H](C)C[C@H](N(C)C)[C@H]2O)[C@](C)(OC(=O)NC/C=C/c2ccc(-c3ncccn3)cc2)C[C@@H](C)C(=O)[C@H](C)[C@H]2NC(=O)O[C@@]21C [Compound 57]
					2 mg/L (≈ 2.03 µM)	0.03 mg/L (≈ 0.0304 µM)	> 16 mg/L	0.25 mg/L (≈ 0.254 µM)	0.25 mg/L (≈ 0.254 µM)	CC[C@H]1OC(=O)[C@H](C)[C@@H](OC(=O)N(C)Cc2cccnc2)[C@H](C)[C@@H](O[C@@H]2O[C@H](C)C[C@H](N(C)C)[C@H]2O)[C@](C)(OC(=O)NC/C=C/c2ccc(-c3ncccn3)cc2)C[C@@H](C)C(=O)[C@H](C)[C@H]2NC(=O)O[C@@]21C [Compound 58]
					4 mg/L (≈ 4.4 µM)	0.06 mg/L (≈ 0.0659 µM)	16 mg/L (≈ 17.6 µM)	0.5 mg/L (≈ 0.549 µM)	0.25 mg/L (≈ 0.275 µM)	CC[C@H]1OC(=O)[C@H](C)[C@@H](OC(=O)N(CC)CC)[C@H](C)[C@@H](O[C@@H]2O[C@H](C)C[C@H](N(C)C)[C@H]2O)[C@](C)(OC(=O)NC/C=C/c2cnc3ccccc3c2)C[C@@H](C)C(=O)[C@H](C)[C@H]2NC(=O)O[C@@]21C [Compound 59]
					4 mg/L (≈ 4.11 µM)	0.06 mg/L (≈ 0.0617 µM)	> 16 mg/L	1 mg/L (≈ 1.03 µM)	0.5 mg/L (≈ 0.514 µM)	CC[C@H]1OC(=O)[C@H](C)[C@@H](OC(=O)N(C)c2cccnc2)[C@H](C)[C@@H](O[C@@H]2O[C@H](C)C[C@H](N(C)C)[C@H]2O)[C@](C)(OC(=O)NC/C=C/c2ccc(-c3ncccn3)cc2)C[C@@H](C)C(=O)[C@H](C)[C@H]2NC(=O)O[C@@]21C [Compound 60]
